How the values were obtained:
Gallus gallus domesticus = test: Dietary supplementation trial, growth performance and survival; format: in vivo; settings: ad libitum, 35 days (table title: 4 weeks), n = 27; for FE (feed efficiency) / PER (protein efficiency ratio) / Weight gain: mean ± SD
From the text: A total of 189 male or female 2-day-old G. g. domesticus were randomly assigned to seven dietary treatment groups, including rEP (0.75, 1.5, 3.0, 6.0 and 12%), spiraline-A (Juily Pharmaceutical Co., LTD. San Sia, Taipei Hsien, Taiwan), and basal diet groups. Each treatment group consisted of one cage with twenty-seven G. g. domesticus. The composition of the fodder is presented in S1b–S1d Table. The animals were allowed ad libitum access to fodder and water for the duration of the trial, beginning from 3 days of age. The total time of feeding was 35 days. The G. g. domesticus were maintained in a cage (animal container) with a constant environment (28.9–37.8°C, 12/12 h light-dark cycle). rEP fodder and fecal sewage were not directly discharged to the outside.
Body weight and survival rate were monitored daily during the experimental period. The weight gain, feed efficiency (FE), protein efficiency ratio (PER), and survival percentage were calculated. After 35 days of treatment, the G. g. domesticus were euthanized, blood samples were collected and serum was obtained by centrifugation (3000 ×g for 15 min at 4°C). Serum was kept at -80°C until analysis. Enzyme-linked immunosorbent assay (ELISA) was performed in accordance with the manufacturer’s standard procedures to determine the levels of immunological factors, including TNF-α, Interleukin-1β, Interleukin-6, Interleukin-10, Lysozyme, Immunoglobin-G (IgG), and Interferon-γ. Chicken serum samples were analyzed with ELISA kits from ABclonal Inc. (Woburn, MA, USA). After the reaction was completed, the optical density (OD) was measured at 450 nm on a microplate reader (SpectraMax® i3, Molecular Devices, Lagerhausstrasse, Wals, Austria).
Data were analyzed with Prism 7 software (GraphPad Inc., La Jolla, CA, USA). Values represent the mean ± standard deviation (SD). P < 0.05 was considered significant for one-way Analysis of variance (ANOVA) with Tukey’s multiple comparison test.

intestinal microflora = test: Intestinal microflora in duodenum; format: in vivo, Gallus gallus domesticus; settings: 1.5% rEP in diet, compared to spiraline A and basal diet groups (S3e Fig)
Description: The growth promoting action of EP may be related to intestinal absorption and as such, small villus morphology was evaluated in a previous study. […] Moreover, growth enhancement has been observed in other reports. For example, feeding mice with PR39 peptide (4.7 kDa proline-rich AMP)-expressing Lactobacillus casei caused jejunum and duodenum villus height in the intestinal villi to increase. Use of recombinant porcine β-defensin 2 (rpBD2) as a feed additive for weaned piglets also produced increases in intestinal villus height of the duodenum and jejunum. Additionally, birds fed with AMP-A3 diet had increased villus height of the duodenum, jejunum and ileum. […] Fig). […] Supplementary file pone.0230021.s003.TIF: S3 Fig Effects of orally administered a rEP on posture, body weight, intestinal morphology, and gut flora. (a) After 28 days of feeding the 1.5% rEP-receiving chickens were larger than the spiraline A and basal diet controls. (b) The effects of feeding 1.5% rEP on body weight. (c) Representative picture of hematoxylin and eosin staining of intestinal villi and crypts. (d) The intestinal villus length and crypt depth were measured. (e) The effects of orally administrated the spiraline A, basal diet, and 1.5% rEP on intestinal microflora in G. g. domesticus. Relative proportions of bacterial families are shown. […]

[1] = diet with 0.75% rEP spray-dried powder
[2] = diet with 1.5% rEP spray-dried powder
[3] = diet with 3.0% rEP spray-dried powder
[4] = diet with 6.0% rEP spray-dried powder
[5] = diet with 12.0% rEP spray-dried powder

EFFIFHIIKGLFHAGRMIHGLVNRRRHRHHHHHH [rEP, recombinant His-tagged Epinephelus lanceolatus piscidin from Pichia pastoris, used as crude culture supernatant or spray-dried powder]
FE (feed efficiency) (Gallus gallus domesticus; [1]): 0.53±0.03
PER (protein efficiency ratio) (Gallus gallus domesticus; [1]): 1.58±0.09
Weight gain (Gallus gallus domesticus; [1]): 2531.80±142.13%
Survival (Gallus gallus domesticus; [1]): 92.60%
FE (feed efficiency) (Gallus gallus domesticus; [2]): 0.58±0.03
PER (protein efficiency ratio) (Gallus gallus domesticus; [2]): 1.8±0.08
Weight gain (Gallus gallus domesticus; [2]): 2727.42±116.08%
Survival (Gallus gallus domesticus; [2]): 100%
FE (feed efficiency) (Gallus gallus domesticus; [3]): 0.57±0.02
PER (protein efficiency ratio) (Gallus gallus domesticus; [3]): 1.86±0.08
Weight gain (Gallus gallus domesticus; [3]): 2809.71±119.30%
Survival (Gallus gallus domesticus; [3]): 96.20%
FE (feed efficiency) (Gallus gallus domesticus; [4]): 0.57±0.02
PER (protein efficiency ratio) (Gallus gallus domesticus; [4]): 2.03±0.08
Weight gain (Gallus gallus domesticus; [4]): 2738.11±109.04%
Survival (Gallus gallus domesticus; [4]): 100%
FE (feed efficiency) (Gallus gallus domesticus; [5]): 0.48±0.04
PER (protein efficiency ratio) (Gallus gallus domesticus; [5]): 2.17±0.16
Weight gain (Gallus gallus domesticus; [5]): 2181.26±158.95%
Survival (Gallus gallus domesticus; [5]): 96.20%
Numbers of Enterobacteriaceae and Staphylococcaceae in duodenum (intestinal microflora): decreasing
Numbers of Lactobacillaceae and Entercoccaceae in duodenum (intestinal microflora): significantly increased

Reference: publication PMC7065771, “Dietary supplementation of recombinant antimicrobial peptide Epinephelus lanceolatus piscidin improves growth performance and immune response in Gallus gallus domesticus” (PLoS ONE, 2020)
